From patent US20240124504A1, “AROMATIC HETEROCYCLIC COMPOUND, AND PHARMACEUTICAL COMPOSITION AND APPLICATION THEREOF” (GT APEIRON THERAPEUTICS LIMITED, priority 2020, published 2024)

Tests used:
[1] = target: CDK7/cyclinH/MAT1 complex (Homo sapiens, UniProt P50613); assay: In-vitro enzymatic inhibitory activity testing, CDK7 inhibition assay (Caliper EZ Reader II); format: biochemical; settings: CDK7/cyclinH/MAT1 6 nM, 180 min at 27° C.
Method in brief: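 Enzyme preincubated 10 min with compound, then peptide substrate plus ATP added in 80 mM MES pH 6.5, 10 mM MgCl2 buffer; 180 min at 27 °C, stopped with EDTA.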

Caco-2 cells = assay: Caco-2 membrane permeability and efflux rate; format: in vitro ADME; settings: Caco-2, 5 μM, 2 hours; for Papp(B-A): basal end to top end; for Papp(A-B): top end to basal end
Method in brief: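 Caco-2 monolayers after 14-18 days' culture; compound at 5 μM final in HBSS (10 mM HEPES, pH 7.4), apical-to-basal and basal-to-apical, 2 h at 37° C. LC/MS/MS gives Papp (10-6 cm/s) and efflux ratio; lucifer yellow checks monolayer integrity.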

CDK7/cyclinH/MAT1 complex, sequence (P50613 whole entry, species assumed): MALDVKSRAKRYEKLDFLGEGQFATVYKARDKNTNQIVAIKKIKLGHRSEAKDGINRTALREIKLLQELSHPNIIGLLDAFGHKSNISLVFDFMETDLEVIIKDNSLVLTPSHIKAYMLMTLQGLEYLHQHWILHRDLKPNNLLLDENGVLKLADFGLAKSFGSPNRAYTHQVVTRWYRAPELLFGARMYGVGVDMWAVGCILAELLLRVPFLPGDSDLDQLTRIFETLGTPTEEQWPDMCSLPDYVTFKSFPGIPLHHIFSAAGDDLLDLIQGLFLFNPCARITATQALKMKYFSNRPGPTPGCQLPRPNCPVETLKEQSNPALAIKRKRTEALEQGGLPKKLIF
CDK7/cyclinH/MAT1 complex, sequence (P51946 whole entry partner, species assumed): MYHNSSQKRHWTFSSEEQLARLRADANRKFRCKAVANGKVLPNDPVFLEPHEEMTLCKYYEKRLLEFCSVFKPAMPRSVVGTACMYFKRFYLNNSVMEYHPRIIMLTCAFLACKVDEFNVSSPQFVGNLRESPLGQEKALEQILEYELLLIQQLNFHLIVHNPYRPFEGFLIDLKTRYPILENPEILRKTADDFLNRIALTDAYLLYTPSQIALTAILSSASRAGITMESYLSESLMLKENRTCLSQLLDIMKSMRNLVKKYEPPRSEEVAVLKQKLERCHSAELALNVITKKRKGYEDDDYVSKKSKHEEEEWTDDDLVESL
CDK7/cyclinH/MAT1 complex, sequence (P51948 whole entry partner, species assumed): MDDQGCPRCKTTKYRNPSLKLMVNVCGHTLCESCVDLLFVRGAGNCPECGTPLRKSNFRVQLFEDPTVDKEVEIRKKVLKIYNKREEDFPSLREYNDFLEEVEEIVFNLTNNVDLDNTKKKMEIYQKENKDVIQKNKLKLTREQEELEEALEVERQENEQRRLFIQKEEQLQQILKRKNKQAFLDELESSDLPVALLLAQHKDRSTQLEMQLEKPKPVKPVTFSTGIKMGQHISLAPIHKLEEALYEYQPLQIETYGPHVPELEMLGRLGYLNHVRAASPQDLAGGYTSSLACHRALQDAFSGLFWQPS

| IC50 [1] | ER (efflux rate) (Caco-2 cells) | Papp(B-A) (Caco-2 cells) | Papp(A-B) (Caco-2 cells) | Compound |
| --- | --- | --- | --- | --- |
| 20 to 200 nM | 12.7 | 36.73 10^−6, cm/s | 2.89 10^−6, cm/s | CP(C)(=O)c1cccc2c(-c3nc(NCC4CC4CO)ncc3C(F)(F)F)c[nH]c12 (single isomer, unassigned) [Compound 144] |
| < 20 nM | 5.95 | 27.87 10^−6, cm/s | 4.68 10^−6, cm/s | CC(CO)CNc1ncc(C(F)(F)F)c(-c2c[nH]c3c(P(C)(C)=O)cccc23)n1 (single isomer, unassigned) [Compound 150] |
